Values of other authors as cited in article PMC8845813 (Angewandte Chemie (International ed. in English), 2021).

Tested on: LC3A and LC3B LIR-interaction interface

Which “potency at LC3A and LC3B LIR-interaction interface” value does the source give for CO[C@@H]1[C@@H](OC(N)=O)[C@@H](O)[C@H](Oc2ccc3c(O)c(NC(=O)c4ccc(O)c(CC=C(C)C)c4)c(=O)oc3c2C)OC1(C)C [novobiocin] here?
The value was “weak potency”.
